# Laboratory results taken from US12214036B2, “Combination therapy comprising AXL/MER and PD-1/PD-L1 inhibitors” (Incyte Corporation, priority 2020, dated 2025).
# Biological target: T1, MER (Homo sapiens, UniProt Q12866)
# T1 sequence (Q12866 21-999): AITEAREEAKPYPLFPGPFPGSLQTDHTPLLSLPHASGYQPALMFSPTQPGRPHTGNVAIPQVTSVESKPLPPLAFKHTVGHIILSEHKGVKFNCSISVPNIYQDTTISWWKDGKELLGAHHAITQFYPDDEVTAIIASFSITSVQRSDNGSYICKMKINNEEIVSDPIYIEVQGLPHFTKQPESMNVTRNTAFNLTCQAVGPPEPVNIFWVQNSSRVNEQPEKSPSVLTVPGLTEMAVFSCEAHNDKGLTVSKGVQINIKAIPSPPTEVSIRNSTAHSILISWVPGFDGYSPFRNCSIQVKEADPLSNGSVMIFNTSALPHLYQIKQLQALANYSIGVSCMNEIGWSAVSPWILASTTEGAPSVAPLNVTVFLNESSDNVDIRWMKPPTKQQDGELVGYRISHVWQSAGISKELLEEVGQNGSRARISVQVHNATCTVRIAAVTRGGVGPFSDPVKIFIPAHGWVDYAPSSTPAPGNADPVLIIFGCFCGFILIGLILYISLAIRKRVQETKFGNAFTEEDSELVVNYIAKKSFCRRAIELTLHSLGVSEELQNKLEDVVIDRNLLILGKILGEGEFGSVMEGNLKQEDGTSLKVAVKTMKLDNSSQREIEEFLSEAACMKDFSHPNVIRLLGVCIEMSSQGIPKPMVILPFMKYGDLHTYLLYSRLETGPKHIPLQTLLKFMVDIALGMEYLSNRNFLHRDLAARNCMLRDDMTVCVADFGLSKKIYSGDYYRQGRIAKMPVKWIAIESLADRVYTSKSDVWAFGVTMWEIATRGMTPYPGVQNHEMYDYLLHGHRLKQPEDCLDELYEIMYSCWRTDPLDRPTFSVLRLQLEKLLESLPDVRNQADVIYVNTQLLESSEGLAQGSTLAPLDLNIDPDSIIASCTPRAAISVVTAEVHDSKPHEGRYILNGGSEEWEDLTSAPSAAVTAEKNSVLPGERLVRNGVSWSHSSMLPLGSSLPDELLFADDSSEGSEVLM
# Assay: Phospho-MER inhibition assay in G361 cells (ELISA)
# Assay type: cell-based
# Design: G361 cells, a melanoma cell line expressing high level of MER kinase; endogenous in cells; host or cells: G361
# Settings: G361 melanoma cells, N=2 (FIG. 3); read-out: IC50, MER phosphorylation induced by MAB8912
# Protocol: The potency of Compound 1 in blocking MER auto-phosphorylation was evaluated in G361 cells, a melanoma cell line expressing high level of MER kinase.
# Newly thawed G361 cells were allowed to recover for three passages before use, and only cells within 20 passages after thawing were used in the assay. Cells were kept under nonconfluent conditions and used in log-phase growth. Two mL of 1×10^6 cells/mL (2×10^6 cells/well) G361 cells were added to a six-well tissue-culture plates (Corning Incorporated; #3961) for 2 days. At the time of the assay, 1 mL of medium was added to each well. […] The optical density of the plate was measured using a Molecular Devices SpectraMax Plus microplate reader (Molecular Devices, San Jose, Calif.) at 450 nm with wavelength correction at 540 nm. Absorbance of the standards was plotted versus the concentration to generate a standard curve using four-parameter algorithm curve fitting software (SOFTmax PRO application, Molecular Devices). pMER concentrations for unknown samples were determined by extrapolation from the standard curve. IC50 values were calculated by GraphPad Prism 7.0 using a nonlinear regression sigmoidal dose-response curve with variable slope.
smiles,measurement,value
"CC(C)C(=O)N1CCC(c2cc(-c3ccc(NC(=O)c4cn(C(C)C)c(=O)n(-c5ccccn5)c4=O)cc3)c3c(N)ncnn23)CC1 [Compound 1, N-(4-(4-Amino-7-(1-isobutyrylpiperidin-4-yl)pyrrolo[1,2-f][1,2,4]triazin-5-yl)phenyl)-1-isopropyl-2,4-dioxo-3-(pyridin-2-yl)-1,2,3,4-tetrahydropyrimidine-5-carboxamide]",IC50,8.3 ± 3.1 nM
